Assay results: patent US12440484B2, “1,3,4-oxadiazole homophthalimide derivative compounds as histone deacetylase 6 inhibitor, and the pharmaceutical composition comprising the same” (Chong Kun Dang Pharmaceutical Corp., priority 2019, dated 2025)

Tests used:
HDAC1 = HDAC1 (Homo sapiens (Human), UniProt Q13547); test: HDAC enzyme activity inhibition (in vitro), HDAC1 Fluorimetric Drug Discovery Assay Kit; format: biochemical; conditions: samples at 100, 1000 and 10000 nM; 37° C. 60 minutes; fluorescence Ex 390, Em 460
Chain of HDAC1 (Q13547 whole entry): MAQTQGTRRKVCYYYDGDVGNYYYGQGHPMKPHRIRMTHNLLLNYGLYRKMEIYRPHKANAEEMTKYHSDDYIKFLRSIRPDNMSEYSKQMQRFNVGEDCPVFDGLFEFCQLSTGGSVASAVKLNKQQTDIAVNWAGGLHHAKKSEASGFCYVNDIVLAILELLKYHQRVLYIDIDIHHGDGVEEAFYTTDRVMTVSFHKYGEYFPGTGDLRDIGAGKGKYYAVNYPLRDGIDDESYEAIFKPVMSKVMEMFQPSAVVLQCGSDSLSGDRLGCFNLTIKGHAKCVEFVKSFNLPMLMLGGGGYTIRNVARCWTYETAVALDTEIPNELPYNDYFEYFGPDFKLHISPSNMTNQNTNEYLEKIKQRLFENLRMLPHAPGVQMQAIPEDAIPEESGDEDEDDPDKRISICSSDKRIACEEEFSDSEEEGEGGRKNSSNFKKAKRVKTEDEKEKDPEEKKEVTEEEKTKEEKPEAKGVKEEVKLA

HDAC6 human recombinant = HDAC6 human recombinant (Homo sapiens (Human), UniProt Q9UBN7); test: HDAC enzyme activity inhibition (in vitro), HDAC6 assay; format: biochemical; conditions: samples at 0.1, 1, 10, 100 and 1000 nM; 37° C. 60 minutes; fluorescence Ex 390, Em 460
Chain of HDAC6 human recombinant (Q9UBN7 whole entry): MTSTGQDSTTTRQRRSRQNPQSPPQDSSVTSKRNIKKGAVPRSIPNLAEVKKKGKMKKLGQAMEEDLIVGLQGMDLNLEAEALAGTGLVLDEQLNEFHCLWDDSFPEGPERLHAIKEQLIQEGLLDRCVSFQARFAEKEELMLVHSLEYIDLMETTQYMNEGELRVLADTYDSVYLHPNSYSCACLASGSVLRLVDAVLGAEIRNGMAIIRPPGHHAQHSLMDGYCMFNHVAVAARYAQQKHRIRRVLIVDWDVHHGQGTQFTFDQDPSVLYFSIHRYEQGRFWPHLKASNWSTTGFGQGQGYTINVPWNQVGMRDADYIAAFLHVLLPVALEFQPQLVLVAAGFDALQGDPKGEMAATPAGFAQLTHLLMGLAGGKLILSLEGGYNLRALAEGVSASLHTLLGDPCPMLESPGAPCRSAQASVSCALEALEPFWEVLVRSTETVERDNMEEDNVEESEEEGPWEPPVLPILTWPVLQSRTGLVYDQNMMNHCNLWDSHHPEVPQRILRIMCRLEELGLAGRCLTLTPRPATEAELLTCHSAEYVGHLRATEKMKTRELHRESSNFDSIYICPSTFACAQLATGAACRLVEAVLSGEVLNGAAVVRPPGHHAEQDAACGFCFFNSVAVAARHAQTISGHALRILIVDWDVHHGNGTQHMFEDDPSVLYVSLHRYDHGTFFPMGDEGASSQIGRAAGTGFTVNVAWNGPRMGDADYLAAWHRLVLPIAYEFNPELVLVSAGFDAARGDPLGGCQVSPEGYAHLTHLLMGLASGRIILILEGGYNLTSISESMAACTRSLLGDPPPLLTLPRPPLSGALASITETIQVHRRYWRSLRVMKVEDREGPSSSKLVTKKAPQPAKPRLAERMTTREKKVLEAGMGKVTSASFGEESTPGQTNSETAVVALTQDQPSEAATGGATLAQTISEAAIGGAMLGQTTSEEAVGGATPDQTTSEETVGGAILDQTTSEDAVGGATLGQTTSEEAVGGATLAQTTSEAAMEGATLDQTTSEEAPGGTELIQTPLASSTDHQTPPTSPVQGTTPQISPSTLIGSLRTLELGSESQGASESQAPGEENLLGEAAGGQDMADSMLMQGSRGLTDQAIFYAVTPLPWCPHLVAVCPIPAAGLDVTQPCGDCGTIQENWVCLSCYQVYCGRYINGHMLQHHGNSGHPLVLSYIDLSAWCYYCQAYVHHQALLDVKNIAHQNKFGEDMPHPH

Row | SMILES | IC50 (HDAC1) [nM] | IC50 (HDAC6 human recombinant) [nM]
1 | CN1CC=C(c2ccc3c(c2)C(C)(C)C(=O)N(Cc2ccc(-c4nnc(C(F)F)o4)cn2)C3=O)CC1 [Compound 42, 2-((5-(5-(difluoromethyl)-1,3,4-oxadiazole-2-yl)pyridine-2-yl)methyl)-4,4-dimethyl-6-(1-methyl-1,2,3,6-tetrahydropyridine-4-yl)isoquinoline-1,3(2H,4H)-dione] | > 10000 | 35
2 | CC(C)(C)OC(=O)N1CCN(c2ccc3c(c2)C(C)(C)C(=O)N(Cc2ccc(-c4nnc(C(F)F)o4)cn2)C3=O)CC12CC2 [Compound 79, tert-butyl 7-(2-((5-(5-(difluoromethyl)-1,3,4-oxadiazole-2-yl)pyridine-2-yl)methyl)-4,4-dimethyl-1,3-dioxo-1,2,3,4-tetrahydroisoquinoline-6-yl)-4,7-diazaspiro[2.5]octane-4-carboxylate] | > 10000 | 113
3 | CC1(C)C(=O)N(Cc2ccc(-c3nnc(C(F)F)o3)cn2)C(=O)c2c(N3CCOCC3)cccc21 [Compound 83, 2-((5-(5-(difluoromethyl)-1,3,4-oxadiazole-2-yl)pyridine-2-yl)methyl)-4,4-dimethyl-8-morpholinoisoquinoline-1,3(2H,4H)-dione] | > 10000 | 98
4 | Cn1c(=O)n(Cc2ccc(-c3nnc(C(F)F)o3)cn2)c(=O)c2cc(-c3ccoc3)ccc21 [Compound 88, 3-((5-(5-(difluoromethyl)-1,3,4-oxadiazole-2-yl)pyridine-2-yl)methyl)-6-(furan-3-yl)-1-methylquinazoline-2,4(1H,3H)-dione] | > 10000 | 21
5 | COc1ccc(Cn2c(=O)n(Cc3ccc(-c4nnc(C(F)F)o4)cn3)c(=O)c3cc(F)ccc32)cc1 [Compound 66, 3-((5-(5-(difluoromethyl)-1,3,4-oxadiazole-2-yl)pyridine-2-yl)methyl)-6-fluoro-1-(4-methoxybenzyl)quinazoline-2,4(1H,3H)-dione] | > 10000 | 216
6 | CC(F)(F)CN1CCN(c2ccc3c(c2)C(C)(C)C(=O)N(Cc2ccc(-c4nnc(C(F)F)o4)cn2)C3=O)CC1 [Compound 138, 2-((5-(5-(difluoromethyl)-1,3,4-oxadiazole-2-yl)pyridine-2-yl)methyl)-6-(4-(2,2-difluoropropyl)piperazine-1-yl)-4,4-dimethylisoquinoline-1,3(2H,4H)-dione] | > 10000 | 96
7 | O=C1c2ccccc2C2(CCC2)C(=O)N1Cc1ccc(-c2nnc(C(F)F)o2)cc1F [Compound 3, 2′-(4-(5-(difluoromethyl)-1,3,4-oxadiazole-2-yl)-2-fluorobenzyl)-1′H-spiro[cyclobutane-1,4′-isoquinoline]-1′,3′(2′H)-dione] | > 10000 | 318
8 | CC1(C)C(=O)N(Cc2ccc(-c3nnc(C(F)F)o3)cn2)C(=O)c2cc(N3CCN(CC(F)(F)F)CC3)ccc21 [Compound 133, 2-((5-(5-(difluoromethyl)-1,3,4-oxadiazole-2-yl)pyridine-2-yl)methyl)-4,4-dimethyl-7-(4-(2,2,2-trifluoroethyl)piperazine-1-yl)isoquinoline-1,3(2H,4H)-dione] | > 10000 | 76
9 | O=c1c2ccccc2n(CC2CCN(C3COC3)CC2)c(=O)n1Cc1ccc(-c2nnc(C(F)F)o2)cn1 [Compound 16, 3-((5-(5-(difluoromethyl)-1,3,4-oxadiazole-2-yl)pyridine-2-yl)methyl)-1-((1-(oxetan-3-yl)piperidine-4-yl)methyl)quinazoline-2,4(1H,3H)-dione] | > 10000 | 257
10 | CNC(=O)C1CCN(c2ccc3c(c2)C(C)(C)C(=O)N(Cc2ccc(-c4nnc(C(F)F)o4)cn2)C3=O)CC1 [Compound 56, 1-(2-((5-(5-(difluoromethyl)-1,3,4-oxadiazole-2-yl)pyridine-2-yl)methyl)-4,4-dimethyl-1,3-dioxo-1,2,3,4-tetrahydroisoquinoline-6-yl)-N-methylpiperidine-4-carboxamide] | > 10000 | 46
11 | CC1(C)C(=O)N(Cc2ccc(-c3nnc(C(F)F)o3)cn2)C(=O)c2cc(-c3ccccc3F)ccc21 [Compound 109, 2-((5-(5-(difluoromethyl)-1,3,4-oxadiazole-2-yl)pyridine-2-yl)methyl)-7-(2-fluorophenyl)-4,4-dimethylisoquinoline-1,3(2H,4H)-dione] | > 10000 | 107
12 | O=c1c2ccccc2n(Cc2ccc(-c3nnc(C(F)F)o3)cn2)c(=O)n1Cc1ccc(-c2nnc(C(F)F)o2)cn1 [Compound 78, 1,3-bis((5-(5-(difluoromethyl)-1,3,4-oxadiazole-2-yl)pyridine-2-yl)methyl)quinazoline-2,4(1H,3H)-dione] | > 10000 | 40
13 | CC1(C)C(=O)N(Cc2ccc(-c3nnc(C(F)F)o3)cn2)C(=O)c2ccc(N3CCN(CC4CCCCC4)CC3)cc21 [Compound 48, 6-(4-(cyclohexylmethyl)piperazine-1-yl)-2-((5-(5-(difluoromethyl)-1,3,4-oxadiazole-2-yl)pyridine-2-yl)methyl)-4,4-dimethylisoquinoline-1,3(2H,4H)-dione] | > 10000 | 342
14 | Cn1c(=O)n(Cc2ccc(-c3nnc(C(F)F)o3)cn2)c(=O)c2ccc(C3=CCNCC3)cc21 [Compound 122, 3-((5-(5-(difluoromethyl)-1,3,4-oxadiazole-2-yl)pyridine-2-yl)methyl)-1-methyl-7-(1,2,3,6-tetrahydropyridine-4-yl)quinazoline-2,4(1H,3H)-dione] | > 10000 | 23
15 | CN1CCN(c2ccc3c(c2)C(C)(C)C(=O)N(Cc2ccc(-c4nnc(C(F)F)o4)cn2)C3=O)CC1 [Compound 29, 2-((5-(5-(difluoromethyl)-1,3,4-oxadiazole-2-yl)pyridine-2-yl)methyl)-4,4-dimethyl-6-(4-methylpiperazine-1-yl)isoquinoline-1,3(2H,4H)-dione] | > 10000 | 18
16 | CC(=O)N1CCC(c2ccc3c(c2)C(=O)N(Cc2ccc(-c4nnc(C(F)F)o4)cn2)C(=O)C3(C)C)CC1 [Compound 127, 7-(1-acetylpiperidine-4-yl)-2-((5-(5-(difluoromethyl)-1,3,4-oxadiazole-2-yl)pyridine-2-yl)methyl)-4,4-dimethylisoquinoline-1,3(2H,4H)-dione] | > 10000 | 17
17 | Cn1c(=O)n(Cc2ccc(-c3nnc(C(F)F)o3)cn2)c(=O)c2ccc(-c3ccncc3)cc21 [Compound 101, 3-((5-(5-(difluoromethyl)-1,3,4-oxadiazole-2-yl)pyridine-2-yl)methyl)-1-methyl-7-(pyridine-4-yl)quinazoline-2,4(1H,3H)-dione] | > 10000 | 33
18 | CCCCN1CCN(c2ccc3c(c2)C(C)(C)C(=O)N(Cc2ccc(-c4nnc(C(F)F)o4)cn2)C3=O)CC1 [Compound 147, 6-(4-butylpiperazine-1-yl)-2-((5-(5-(difluoromethyl)-1,3,4-oxadiazole-2-yl)pyridine-2-yl)methyl)-4,4-dimethylisoquinoline-1,3(2H,4H)-dione] | > 10000 | 69
19 | O=c1[nH]c2ccc(F)cc2c(=O)n1Cc1ccc(-c2nnc(C(F)F)o2)cn1 [Compound 67, 3-((5-(5-(difluoromethyl)-1,3,4-oxadiazole-2-yl)pyridine-2-yl)methyl)-6-fluoroquinazoline-2,4(1H,3H)-dione] | > 10000 | 62
20 | O=C1c2ccccc2C2(CCC2)C(=O)N1Cc1ccc(-c2nnc(C(F)F)o2)cc1 [Compound 5, 2′-(4-(5-(difluoromethyl)-1,3,4-oxadiazole-2-yl)benzyl)-1′H-spiro[cyclobutane-1,4′-isoquinoline]-1′,3′(2′H)-dione] | > 10000 | 513
21 | O=C1c2ccc(Br)cc2C2(CCC2)C(=O)N1Cc1ccc(-c2nnc(C(F)F)o2)cn1 [Compound 106, 6′-bromo-2′-((5-(5-(difluoromethyl)-1,3,4-oxadiazole-2-yl)pyridine-2-yl)methyl)-1′H-spiro[cyclobutane-1,4′-isoquinoline]-1′,3′(2′H)-dione] | > 10000 | 48
22 | Cn1c(=O)n(Cc2ccc(-c3nnc(C(F)F)o3)cn2)c(=O)c2ccc(Br)cc21 [Compound 97, 7-bromo-3-((5-(5-(difluoromethyl)-1,3,4-oxadiazole-2-yl)pyridine-2-yl)methyl)-1-methylquinazoline-2,4(1H,3H)-dione] | > 10000 | 61
23 | CC1(C)C(=O)N(Cc2ccc(-c3nnc(C(F)F)o3)cn2)C(=O)c2ccc(-c3cccnc3)cc21 [Compound 104, 2-((5-(5-(difluoromethyl)-1,3,4-oxadiazole-2-yl)pyridine-2-yl)methyl)-4,4-dimethyl-6-(pyridine-3-yl)isoquinoline-1,3(2H,4H)-dione] | > 10000 | 20
24 | CC1(C)C(=O)N(Cc2ccc(-c3nnc(C(F)F)o3)cn2)C(=O)c2ccc(N3CCN(CC(F)(F)C(F)F)CC3)cc21 [Compound 137, 2-((5-(5-(difluoromethyl)-1,3,4-oxadiazole-2-yl)pyridine-2-yl)methyl)-4,4-dimethyl-6-(4-(2,2,3,3-tetrafluoropropyl)piperazine-1-yl)isoquinoline-1,3(2H,4H)-dione] | > 10000 | 89
25 | CCCCCN1CCN(c2ccc3c(c2)C(C)(C)C(=O)N(Cc2ccc(-c4nnc(C(F)F)o4)cn2)C3=O)CC1 [Compound 45, 2-((5-(5-(difluoromethyl)-1,3,4-oxadiazole-2-yl)pyridine-2-yl)methyl)-4,4-dimethyl-6-(4-pentylpiperazine-1-yl)isoquinoline-1,3(2H,4H)-dione] | > 10000 | 156
26 | CN1CCC(Cn2c(=O)n(Cc3ccc(-c4nnc(C(F)F)o4)cn3)c(=O)c3ccccc32)CC1 [Compound 15, 3-((5-(5-(difluoromethyl)-1,3,4-oxadiazole-2-yl)pyridine-2-yl)methyl)-1-((1-methylpiperidine-4-yl)methyl)quinazoline-2,4(1H,3H)-dione] | > 10000 | 196
